Measurements published in ChEMBL document CHEMBL1201862, “PubChem BioAssay data set” (2004).
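Method: 48-hour compound exposure of cells in 96-well plates, five concentrations, linear interpolation of endpoints. GI50 is the concentration that inhibits growth by half.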 Active and inactive are the calls of the source. No stated cut-off is given here; in the data, active = GI50 up to about 1.1 µM and inactive = higher.

Key:
Test in all cases: NCI anticancer screen, dose series, 48 h
[1] = test system: Malme-3M
[2] = test system: SF-295
[3] = test system: T47D
[4] = test system: SNB-19
[5] = test system: HCC 2998
[6] = test system: SK-MEL-28
[7] = test system: PC-3
[8] = test system: UACC-62
[9] = test system: 786-0
[10] = test system: DU-145
[11] = test system: MOLT-4
[12] = test system: SNB-75
[13] = test system: MCF7
[14] = test system: HCT-116
[15] = test system: HT-29
[16] = test system: OVCAR-5
[17] = test system: HOP-62
[18] = test system: NCI-H522
[19] = test system: OVCAR-3

Row | Compound | GI50 [1] | GI50 [2] | GI50 [3] | GI50 [4] | GI50 [5] | GI50 [6] | GI50 [7] | GI50 [8] | GI50 [9] | GI50 [10] | GI50 [11] | GI50 [12] | GI50 [13] | GI50 [14] | GI50 [15] | GI50 [16] | GI50 [17] | GI50 [18] | GI50 [19]
1 | COc1ccc(CC/N=C2\OCc3ccccc32)cc1OC | 56.8 µM (inactive) | 33.3 µM (inactive) | 27.5 µM (inactive) | > 100 µM (inactive) | > 100 µM (inactive) | > 100 µM (inactive) | 46.9 µM (inactive) | 29.2 µM (inactive) | 45.3 µM (inactive) | 32.4 µM (inactive) | 50.4 µM (inactive) | 68.2 µM (inactive) | 27.7 µM (inactive) | 24 µM (inactive) | 32.1 µM (inactive) |  |  |  | 
2 | CCOC(=O)/C(=C\NC(=S)Nc1ccc(Cl)c(Cl)c1)C(=O)c1ccccc1 | 63.5 µM (inactive) | 33.6 µM (inactive) | 7.82 µM (inactive) |  | 17.3 µM (inactive) | 53.2 µM (inactive) | 21.5 µM (inactive) | 32.3 µM (inactive) | 58.6 µM (inactive) | > 100 µM (inactive) | 19 µM (inactive) | 6.79 µM (inactive) | 33.3 µM (inactive) | 46.5 µM (inactive) | 33.1 µM (inactive) | 36.2 µM (inactive) | 40.6 µM (inactive) | 6.3 µM (inactive) | 
3 | CC1(C)N=C(N)N=C(N)N1c1ccc(CCCCc2ccc(Cl)cc2Cl)cc1 | 0.486 µM (active) | 0.893 µM (active) | 1.29 µM (inactive) | 0.527 µM (active) | 0.451 µM (active) | 2.88 µM (inactive) | 0.418 µM (active) |  | 0.5 µM (active) | 1.92 µM (inactive) | 0.861 µM (active) |  | 0.453 µM (active) | 0.247 µM (active) | 0.546 µM (active) | 4.31 µM (inactive) | 1.08 µM (active) | 0.433 µM (active) | 0.431 µM (active)
4 | COc1cc(/C=C2\NC(=O)N(/C=C3\C(=O)Oc4ccccc4C3=O)C2=O)ccc1O |  | > 100 µM (inactive) | > 100 µM (inactive) | 37.5 µM (inactive) | 41.2 µM (inactive) |  | 64 µM (inactive) | 49 µM (inactive) | 88.7 µM (inactive) | 87.1 µM (inactive) | 36.2 µM (inactive) | 13.8 µM (inactive) | > 100 µM (inactive) | > 100 µM (inactive) | 54.5 µM (inactive) | > 100 µM (inactive) | 61.2 µM (inactive) | 29.2 µM (inactive) | 
5 | CC1=NN(c2nc(N)nc(CCl)n2)C(C)(C)C1 |  | 25.7 µM (inactive) | 45.6 µM (inactive) | > 61.9 µM (inactive) | 27.1 µM (inactive) | 34.1 µM (inactive) | 40.8 µM (inactive) | 14.8 µM (inactive) | 5.68 µM (inactive) | 35.1 µM (inactive) | 19.5 µM (inactive) | 24.3 µM (inactive) | 45 µM (inactive) | 25.9 µM (inactive) | 29.9 µM (inactive) | 32 µM (inactive) | 3.67 µM (inactive) | 1.39 µM (inactive) | 14.1 µM (inactive)
6 | CCOC(=O)c1c(CN2CCCC2)n(-c2ccccc2)c2cc(Br)c(O)cc12 | 19.5 µM (inactive) | 16.6 µM (inactive) | 20.7 µM (inactive) | 16.5 µM (inactive) |  | 15.1 µM (inactive) | 21.3 µM (inactive) | 16.7 µM (inactive) | 16.7 µM (inactive) | 19.6 µM (inactive) | 17 µM (inactive) | 15.3 µM (inactive) | 21 µM (inactive) | 16 µM (inactive) | 5.86 µM (inactive) | 19.1 µM (inactive) | 13.3 µM (inactive) | 17.1 µM (inactive) | 15.9 µM (inactive)
7 | COC(=O)c1c(C)nc(C)c(N=O)c1-c1ccccc1C(F)(F)F | 15.8 µM (inactive) | > 100 µM (inactive) | 17.3 µM (inactive) | > 100 µM (inactive) | 79.6 µM (inactive) | 14.9 µM (inactive) | 34.2 µM (inactive) | 27.6 µM (inactive) | 17.6 µM (inactive) | > 100 µM (inactive) | 6.25 µM (inactive) |  | 20.2 µM (inactive) | 16.4 µM (inactive) | 15.7 µM (inactive) | 21 µM (inactive) | > 100 µM (inactive) | 4.97 µM (inactive) | 17.3 µM (inactive)
8 | Cn1nc2c(c1N)Cc1c(nn(C)c1N)-c1ccccc1-2 | > 100 µM (inactive) | > 100 µM (inactive) | > 100 µM (inactive) | > 100 µM (inactive) | > 100 µM (inactive) | > 100 µM (inactive) | > 100 µM (inactive) | > 100 µM (inactive) | > 100 µM (inactive) | > 100 µM (inactive) | > 100 µM (inactive) |  | > 100 µM (inactive) | > 100 µM (inactive) | > 100 µM (inactive) | > 100 µM (inactive) | > 100 µM (inactive) | > 100 µM (inactive) | > 100 µM (inactive)
